Laboratory results: ChEMBL document CHEMBL5723584 (2023)
Calls of active or inactive are those of the source. The calls are words filed in the database; no cut-off is given here.

Key:
[1] = target: Citron Rho-interacting kinase (Homo sapiens, UniProt O14578); experiment: Promega NanoBRET (CIT)
[2] = target: BMP-2-inducible protein kinase (Homo sapiens, UniProt Q9NSY1); experiment: Promega NanoBRET (BMP2K)
[3] = target: Aurora kinase B (Homo sapiens, UniProt Q96GD4); experiment: Promega NanoBRET (AURKB)
[4] = target: Serine-protein kinase ATM (Homo sapiens) (UniProt Q13315); experiment: activity of ATM(h) at 1.0 µM in the Eurofins Kinase panel; conditions: Compound concentration 1.0 uM
[5] = target: Serine/threonine-protein kinase B-raf (Homo sapiens) (UniProt P15056); experiment: activity of B-Raf(h) at 1.0 µM in the Eurofins Kinase panel; conditions: Compound concentration 1.0 uM
[6] = target: Calcium/calmodulin-dependent protein kinase type II subunit alpha (Homo sapiens) (UniProt Q9UQM7); experiment: activity of CaMKIIalpha(h) at 1.0 µM in the Eurofins Kinase panel; conditions: Compound concentration 1.0 uM
[7] = target: Cyclin-Y/Cyclin-dependent kinase 16 (Homo sapiens) (UniProt Q00536+Q8ND76); experiment: activity of CDK16/cyclinY(h) at 1.0 µM in the Eurofins Kinase panel; assay type: protein-complex assay; conditions: Compound concentration 1.0 uM
[8] = target: Casein kinase I isoform delta (Homo sapiens) (UniProt P48730); experiment: activity of CK1delta(h) at 1.0 µM in the Eurofins Kinase panel; conditions: Compound concentration 1.0 uM
[9] = target: Serine/threonine-protein kinase DCLK2 (Homo sapiens) (UniProt Q8N568); experiment: activity of DCAMKL2(h) at 1.0 µM in the Eurofins Kinase panel; conditions: Compound concentration 1.0 uM
[10] = target: Ephrin type-A receptor 1 (Homo sapiens) (UniProt P21709); experiment: activity of EphA1(h) at 1.0 µM in the Eurofins Kinase panel; conditions: Compound concentration 1.0 uM
[11] = target: Ephrin type-A receptor 8 (Homo sapiens) (UniProt P29322); experiment: activity of EphA8(h) at 1.0 µM in the Eurofins Kinase panel; conditions: Compound concentration 1.0 uM
[12] = target: Ephrin type-B receptor 2 (Homo sapiens) (UniProt P29323); experiment: activity of EphB2(h) at 1.0 µM in the Eurofins Kinase panel; conditions: Compound concentration 1.0 uM
[13] = target: Fibroblast growth factor receptor 2 (Homo sapiens) (UniProt P21802); experiment: activity of FGFR2(h) at 1.0 µM in the Eurofins Kinase panel; conditions: Compound concentration 1.0 uM
[14] = target: Fibroblast growth factor receptor 3 (Homo sapiens) (UniProt P22607); experiment: activity of FGFR3(h) at 1.0 µM in the Eurofins Kinase panel; conditions: Compound concentration 1.0 uM
[15] = target: Tyrosine-protein kinase Fgr (Homo sapiens) (UniProt P09769); experiment: activity of Fgr(h) at 1.0 µM in the Eurofins Kinase panel; conditions: Compound concentration 1.0 uM
[16] = target: Vascular endothelial growth factor receptor 1 (Homo sapiens) (UniProt P17948); experiment: activity of Flt1(h) at 1.0 µM in the Eurofins Kinase panel; conditions: Compound concentration 1.0 uM
[17] = target: Vascular endothelial growth factor receptor 3 (Homo sapiens) (UniProt P35916); experiment: activity of Flt4(h) at 1.0 µM in the Eurofins Kinase panel; conditions: Compound concentration 1.0 uM
[18] = target: Rhodopsin kinase GRK1 (Homo sapiens) (UniProt Q15835); experiment: activity of GRK1(h) at 1.0 µM in the Eurofins Kinase panel; conditions: Compound concentration 1.0 uM
[19] = target: Beta-adrenergic receptor kinase 1 (Homo sapiens) (UniProt P25098); experiment: activity of GRK2(h) at 1.0 µM in the Eurofins Kinase panel; conditions: Compound concentration 1.0 uM
[20] = target: Tyrosine-protein kinase HCK (Homo sapiens) (UniProt P08631); experiment: activity of Hck(h) at 1.0 µM in the Eurofins Kinase panel; conditions: Compound concentration 1.0 uM
[21] = target: Tyrosine-protein kinase JAK1 (Homo sapiens) (UniProt P23458); experiment: activity of JAK1(h) at 1.0 µM in the Eurofins Kinase panel; conditions: Compound concentration 1.0 uM
[22] = target: Serine/threonine-protein kinase MAK (Homo sapiens) (UniProt P20794); experiment: activity of MAK(h) at 1.0 µM in the Eurofins Kinase panel; conditions: Compound concentration 1.0 uM
[23] = target: Mitogen-activated protein kinase kinase kinase kinase 3 (Homo sapiens) (UniProt Q8IVH8); experiment: activity of MAP4K3(h) at 1.0 µM in the Eurofins Kinase panel; conditions: Compound concentration 1.0 uM
[24] = target: Dual specificity mitogen-activated protein kinase kinase 3 (Homo sapiens) (UniProt P46734); experiment: activity of MKK3(h) at 1.0 µM in the Eurofins Kinase panel; conditions: Compound concentration 1.0 uM
[25] = target: Serine/threonine-protein kinase Nek3 (Homo sapiens) (UniProt P51956); experiment: activity of NEK3(h) at 1.0 µM in the Eurofins Kinase panel; conditions: Compound concentration 1.0 uM
[26] = target: Serine/threonine-protein kinase NIM1 (Homo sapiens) (UniProt Q8IY84); experiment: activity of NIM1(h) at 1.0 µM in the Eurofins Kinase panel; conditions: Compound concentration 1.0 uM
[27] = target: Serine/threonine-protein kinase PAK 3 (Homo sapiens) (UniProt O75914); experiment: activity of PAK3(h) at 1.0 µM in the Eurofins Kinase panel; conditions: Compound concentration 1.0 uM
[28] = target: Serine/threonine-protein kinase PAK 6 (Homo sapiens) (UniProt Q9NQU5); experiment: activity of PAK6(h) at 1.0 µM in the Eurofins Kinase panel; conditions: Compound concentration 1.0 uM
[29] = target: Phosphatidylinositol 4-phosphate 5-kinase type-1 alpha (Homo sapiens) (UniProt Q99755); experiment: activity of PIP5K1alpha(h) at 1.0 µM in the Eurofins Kinase panel; conditions: Compound concentration 1.0 uM
[30] = target: Protein kinase C epsilon type (Homo sapiens) (UniProt Q02156); experiment: activity of PKCepsilon(h) at 1.0 µM in the Eurofins Kinase panel; conditions: Compound concentration 1.0 uM
[31] = target: Protein kinase C eta type (Homo sapiens) (UniProt P24723); experiment: activity of PKCeta(h) at 1.0 µM in the Eurofins Kinase panel; conditions: Compound concentration 1.0 uM
[32] = target: cGMP-dependent protein kinase 1 (Homo sapiens) (UniProt Q13976); experiment: activity of PKG1alpha(h) at 1.0 µM in the Eurofins Kinase panel; conditions: Compound concentration 1.0 uM
[33] = target: Ribosomal protein S6 kinase alpha-1 (Homo sapiens) (UniProt Q15418); experiment: activity of Rsk1(h) at 1.0 µM in the Eurofins Kinase panel; conditions: Compound concentration 1.0 uM
[34] = target: Ribosomal protein S6 kinase alpha-2 (Homo sapiens) (UniProt Q15349); experiment: activity of Rsk3(h) at 1.0 µM in the Eurofins Kinase panel; conditions: Compound concentration 1.0 uM
[35] = target: Serine/threonine-protein kinase SIK2 (Homo sapiens) (UniProt Q9H0K1); experiment: activity of SIK2(h) at 1.0 µM in the Eurofins Kinase panel; conditions: Compound concentration 1.0 uM
[36] = target: Transcription initiation factor TFIID subunit 1-like (Homo sapiens) (UniProt Q8IZX4); experiment: activity of TAF1L(h) at 1.0 µM in the Eurofins Kinase panel; conditions: Compound concentration 1.0 uM
[37] = target: Tribbles homolog 2 (Homo sapiens) (UniProt Q92519); experiment: activity of TRB2(h) at 1.0 µM in the Eurofins Kinase panel; conditions: Compound concentration 1.0 uM
[38] = target: NT-3 growth factor receptor (Homo sapiens) (UniProt Q16288); experiment: activity of TrkC(h) at 1.0 µM in the Eurofins Kinase panel; conditions: Compound concentration 1.0 uM
[39] = target: Serine/threonine-protein kinase ULK3 (Homo sapiens) (UniProt Q6PHR2); experiment: activity of ULK3(h) at 1.0 µM in the Eurofins Kinase panel; conditions: Compound concentration 1.0 uM
[40] = target: Phosphorylase b kinase gamma catalytic chain, testis/liver isoform (Homo sapiens) (UniProt P15735); experiment: activity of PhKgamma2(h) at 1.0 µM in the Eurofins Kinase panel; conditions: Compound concentration 1.0 uM

Ribosomal protein S6 kinase alpha-1 (Homo sapiens), sequence (Q15418 whole entry): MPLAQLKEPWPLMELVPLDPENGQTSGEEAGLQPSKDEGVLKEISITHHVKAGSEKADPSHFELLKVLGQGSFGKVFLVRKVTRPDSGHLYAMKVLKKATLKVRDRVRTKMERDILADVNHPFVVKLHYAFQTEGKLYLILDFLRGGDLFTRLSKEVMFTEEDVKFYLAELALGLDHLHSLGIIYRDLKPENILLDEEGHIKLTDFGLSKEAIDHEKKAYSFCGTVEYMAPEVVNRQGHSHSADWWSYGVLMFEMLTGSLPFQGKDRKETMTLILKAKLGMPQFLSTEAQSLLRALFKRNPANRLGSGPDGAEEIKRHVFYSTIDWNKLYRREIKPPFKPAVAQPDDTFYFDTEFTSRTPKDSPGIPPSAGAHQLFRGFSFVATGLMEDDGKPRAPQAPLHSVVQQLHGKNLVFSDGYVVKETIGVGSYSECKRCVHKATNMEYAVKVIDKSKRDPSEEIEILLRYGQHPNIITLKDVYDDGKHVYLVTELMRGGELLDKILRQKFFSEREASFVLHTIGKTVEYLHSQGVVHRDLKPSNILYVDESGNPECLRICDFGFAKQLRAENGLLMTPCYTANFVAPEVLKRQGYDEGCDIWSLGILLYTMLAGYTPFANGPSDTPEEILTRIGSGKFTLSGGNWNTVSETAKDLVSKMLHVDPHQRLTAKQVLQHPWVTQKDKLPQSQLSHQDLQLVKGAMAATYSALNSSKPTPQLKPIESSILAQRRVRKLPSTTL
Fibroblast growth factor receptor 2 (Homo sapiens), sequence (P21802 22-821 limits assumed): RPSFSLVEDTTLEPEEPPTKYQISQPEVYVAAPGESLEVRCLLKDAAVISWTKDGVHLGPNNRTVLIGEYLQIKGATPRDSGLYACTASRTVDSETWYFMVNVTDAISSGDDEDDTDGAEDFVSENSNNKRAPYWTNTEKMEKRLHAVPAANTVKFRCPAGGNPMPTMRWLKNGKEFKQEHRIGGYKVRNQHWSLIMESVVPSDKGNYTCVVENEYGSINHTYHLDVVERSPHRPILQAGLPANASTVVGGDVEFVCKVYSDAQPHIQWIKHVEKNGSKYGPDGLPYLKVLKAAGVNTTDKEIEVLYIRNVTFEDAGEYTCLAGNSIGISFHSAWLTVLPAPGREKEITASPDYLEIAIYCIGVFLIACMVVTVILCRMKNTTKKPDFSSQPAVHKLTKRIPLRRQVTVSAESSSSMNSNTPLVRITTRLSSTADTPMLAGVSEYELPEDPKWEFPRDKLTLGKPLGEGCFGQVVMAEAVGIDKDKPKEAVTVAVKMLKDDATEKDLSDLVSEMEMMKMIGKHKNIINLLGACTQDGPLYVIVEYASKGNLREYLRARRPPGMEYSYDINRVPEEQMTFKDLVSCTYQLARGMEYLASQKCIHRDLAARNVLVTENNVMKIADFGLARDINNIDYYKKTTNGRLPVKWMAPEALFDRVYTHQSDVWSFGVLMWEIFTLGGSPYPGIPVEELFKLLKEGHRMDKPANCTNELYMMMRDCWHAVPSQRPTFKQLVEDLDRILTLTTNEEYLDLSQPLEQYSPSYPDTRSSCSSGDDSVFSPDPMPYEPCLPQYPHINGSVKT
Mitogen-activated protein kinase kinase kinase kinase 3 (Homo sapiens), sequence (Q8IVH8 whole entry): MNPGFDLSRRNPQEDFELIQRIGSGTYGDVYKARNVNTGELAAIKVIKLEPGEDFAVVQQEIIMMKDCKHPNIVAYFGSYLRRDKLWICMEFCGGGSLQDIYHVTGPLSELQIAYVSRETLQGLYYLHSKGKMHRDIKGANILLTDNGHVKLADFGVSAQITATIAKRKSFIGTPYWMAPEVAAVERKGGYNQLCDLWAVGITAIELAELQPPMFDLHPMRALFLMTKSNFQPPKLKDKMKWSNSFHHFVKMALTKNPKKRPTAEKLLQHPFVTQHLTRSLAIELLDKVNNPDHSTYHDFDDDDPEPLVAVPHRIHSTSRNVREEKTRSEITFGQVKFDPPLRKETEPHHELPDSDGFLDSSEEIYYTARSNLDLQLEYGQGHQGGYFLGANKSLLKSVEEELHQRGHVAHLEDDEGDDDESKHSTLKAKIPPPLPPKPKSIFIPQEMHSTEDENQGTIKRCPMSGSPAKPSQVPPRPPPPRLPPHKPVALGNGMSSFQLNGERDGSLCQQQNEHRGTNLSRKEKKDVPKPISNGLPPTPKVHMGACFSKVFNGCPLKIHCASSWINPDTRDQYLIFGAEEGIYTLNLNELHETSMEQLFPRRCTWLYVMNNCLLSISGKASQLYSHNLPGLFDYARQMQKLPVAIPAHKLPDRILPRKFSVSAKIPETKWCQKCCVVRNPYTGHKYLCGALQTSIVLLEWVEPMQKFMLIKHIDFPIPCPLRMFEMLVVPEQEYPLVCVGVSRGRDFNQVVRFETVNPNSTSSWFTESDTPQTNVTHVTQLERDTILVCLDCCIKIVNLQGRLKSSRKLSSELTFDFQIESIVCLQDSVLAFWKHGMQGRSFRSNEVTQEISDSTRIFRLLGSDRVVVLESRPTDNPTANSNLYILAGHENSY
Serine/threonine-protein kinase MAK (Homo sapiens), sequence (P20794 whole entry): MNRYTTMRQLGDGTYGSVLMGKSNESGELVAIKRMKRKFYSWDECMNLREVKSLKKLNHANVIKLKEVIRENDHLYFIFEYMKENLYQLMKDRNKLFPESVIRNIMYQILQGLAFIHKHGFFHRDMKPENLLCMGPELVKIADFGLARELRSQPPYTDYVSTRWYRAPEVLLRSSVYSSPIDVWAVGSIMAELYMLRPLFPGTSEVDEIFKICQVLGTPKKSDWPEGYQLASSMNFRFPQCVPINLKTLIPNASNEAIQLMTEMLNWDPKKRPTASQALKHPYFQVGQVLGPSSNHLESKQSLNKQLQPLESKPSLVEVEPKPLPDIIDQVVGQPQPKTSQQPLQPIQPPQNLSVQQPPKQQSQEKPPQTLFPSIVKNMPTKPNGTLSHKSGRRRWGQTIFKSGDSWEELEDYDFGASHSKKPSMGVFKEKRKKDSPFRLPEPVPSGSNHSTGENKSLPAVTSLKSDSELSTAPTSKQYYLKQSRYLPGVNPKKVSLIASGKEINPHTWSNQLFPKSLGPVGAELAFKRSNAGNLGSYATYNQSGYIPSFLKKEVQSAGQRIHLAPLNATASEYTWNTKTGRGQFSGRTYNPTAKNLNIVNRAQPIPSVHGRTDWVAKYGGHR
Serine/threonine-protein kinase B-raf (Homo sapiens), sequence (P15056 whole entry): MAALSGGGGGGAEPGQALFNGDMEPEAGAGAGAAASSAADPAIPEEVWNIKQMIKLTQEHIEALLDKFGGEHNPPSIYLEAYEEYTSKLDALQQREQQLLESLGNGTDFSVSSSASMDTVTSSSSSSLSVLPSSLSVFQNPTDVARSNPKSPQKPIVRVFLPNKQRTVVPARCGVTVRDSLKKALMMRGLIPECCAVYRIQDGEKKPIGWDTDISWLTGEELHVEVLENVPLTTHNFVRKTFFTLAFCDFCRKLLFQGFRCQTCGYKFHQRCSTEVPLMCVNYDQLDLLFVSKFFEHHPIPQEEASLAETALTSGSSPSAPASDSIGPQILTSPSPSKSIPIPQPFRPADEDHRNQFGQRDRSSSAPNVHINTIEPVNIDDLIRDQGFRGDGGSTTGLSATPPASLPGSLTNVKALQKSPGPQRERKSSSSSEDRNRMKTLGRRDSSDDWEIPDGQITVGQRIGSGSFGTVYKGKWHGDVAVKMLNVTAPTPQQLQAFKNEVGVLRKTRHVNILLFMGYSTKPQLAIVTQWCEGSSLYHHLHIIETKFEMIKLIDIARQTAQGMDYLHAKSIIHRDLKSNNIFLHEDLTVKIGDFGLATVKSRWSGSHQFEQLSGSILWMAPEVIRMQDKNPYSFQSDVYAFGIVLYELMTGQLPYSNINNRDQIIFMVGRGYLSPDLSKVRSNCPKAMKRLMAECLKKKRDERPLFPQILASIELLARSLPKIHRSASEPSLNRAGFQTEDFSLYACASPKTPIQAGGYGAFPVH
Rhodopsin kinase GRK1 (Homo sapiens), sequence (Q15835 whole entry): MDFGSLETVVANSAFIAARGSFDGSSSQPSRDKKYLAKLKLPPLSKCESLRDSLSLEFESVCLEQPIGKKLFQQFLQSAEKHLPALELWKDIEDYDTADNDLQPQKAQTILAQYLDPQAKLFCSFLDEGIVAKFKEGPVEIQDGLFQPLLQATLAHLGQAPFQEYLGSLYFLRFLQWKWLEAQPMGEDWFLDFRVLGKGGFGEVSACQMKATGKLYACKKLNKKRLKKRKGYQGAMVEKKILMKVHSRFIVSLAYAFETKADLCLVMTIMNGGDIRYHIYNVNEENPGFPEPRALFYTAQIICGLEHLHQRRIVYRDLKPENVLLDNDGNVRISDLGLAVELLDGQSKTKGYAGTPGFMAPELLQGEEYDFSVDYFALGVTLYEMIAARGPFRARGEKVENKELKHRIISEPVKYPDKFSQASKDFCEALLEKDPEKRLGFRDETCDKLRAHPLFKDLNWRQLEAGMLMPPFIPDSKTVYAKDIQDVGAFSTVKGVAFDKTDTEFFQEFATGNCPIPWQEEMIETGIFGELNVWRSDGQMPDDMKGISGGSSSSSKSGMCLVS
Phosphatidylinositol 4-phosphate 5-kinase type-1 alpha (Homo sapiens), sequence (Q99755 whole entry): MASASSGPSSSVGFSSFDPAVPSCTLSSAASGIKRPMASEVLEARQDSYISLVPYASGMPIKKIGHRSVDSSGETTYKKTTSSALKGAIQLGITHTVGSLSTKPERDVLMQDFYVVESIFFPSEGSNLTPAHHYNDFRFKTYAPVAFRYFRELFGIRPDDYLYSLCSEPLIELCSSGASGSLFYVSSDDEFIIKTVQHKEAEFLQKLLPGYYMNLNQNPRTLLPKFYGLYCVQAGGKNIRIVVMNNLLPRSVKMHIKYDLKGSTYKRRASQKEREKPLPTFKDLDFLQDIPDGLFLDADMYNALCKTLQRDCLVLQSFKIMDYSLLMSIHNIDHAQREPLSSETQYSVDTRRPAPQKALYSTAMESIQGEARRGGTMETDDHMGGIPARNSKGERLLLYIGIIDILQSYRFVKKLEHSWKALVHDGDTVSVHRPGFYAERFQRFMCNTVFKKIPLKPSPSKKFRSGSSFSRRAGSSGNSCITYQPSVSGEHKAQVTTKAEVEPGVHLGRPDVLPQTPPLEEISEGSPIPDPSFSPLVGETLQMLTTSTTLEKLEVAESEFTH

## Cc1cc2c(-c3ccc(NC(=O)[C@H](N)CC(C)(C)C)cc3C)ccnc2[nH]1
[1]
  IC50: 0.051 µM (active)
[2]
  IC50: > 10 µM (not active)
[3]
  IC50: > 10 µM (not active)
[4]
  activity: 103%
[5]
  activity: 110%
[6]
  activity: 88%
[7]
  activity: 98%
[8]
  activity: 96%
[9]
  activity: 104%
[10]
  activity: 92%
[11]
  activity: 115%
[12]
  activity: 96%
[13]
  activity: 89%
[14]
  activity: 86%
[15]
  activity: 97%
[16]
  activity: 125%
[17]
  activity: 96%
[18]
  activity: 86%
[19]
  activity: 95%
[20]
  activity: 99%
[21]
  activity: 85%
[22]
  activity: 120%
[23]
  activity: 109%
[24]
  activity: 97%
[25]
  activity: 110%
[26]
  activity: 112%
[27]
  activity: 89%
[28]
  activity: 101%
[29]
  activity: 103%
[30]
  activity: 97%
[31]
  activity: 118%
[32]
  activity: 118%
[33]
  activity: 99%
[34]
  activity: 112%
[35]
  activity: 109%
[36]
  activity: 101%
[37]
  activity: 104%
[38]
  activity: 86%
[39]
  activity: 95%
[40]
  activity: 98%
